In ChEMBL document CHEMBL4308864, “Targeting tyrosine kinase: Development of acridone - pyrrole - oxindole hybrids against human breast cancer” (2019):

Tests used:
Format in all cases: functional
[1] = system: CAKI-1; experiment: Growth inhibition of human Caki1 cells assessed as cell growth at 10^-5 M incubated for 48 hrs by sulforhodamine B assay relative to control; conditions: CAKI-1, 48 h, read-out: Activity
[2] = system: HL-60(TB); experiment: Growth inhibition of human HL-60(TB) cells assessed as cell growth at 10^-5 M incubated for 48 hrs by sulforhodamine B assay relative to control; conditions: HL-60, 48 h, read-out: Activity
[3] = system: 786-0; experiment: Growth inhibition of human 786-0 cells assessed as cell growth at 10^-5 M incubated for 48 hrs by sulforhodamine B assay relative to control; conditions: 786-0, 48 h, read-out: Activity
[4] = system: M14; experiment: Growth inhibition of human M14 cells assessed as cell growth at 10^-5 M incubated for 48 hrs by sulforhodamine B assay relative to control; conditions: M14, 48 h, read-out: Activity
[5] = system: SNB-19; experiment: Growth inhibition of human SNB19 cells assessed as cell growth at 10^-5 M incubated for 48 hrs by sulforhodamine B assay relative to control; conditions: SNB-19, 48 h, read-out: Activity
[6] = system: SK-MEL-2; experiment: Growth inhibition of human SK-MEL-2 cells assessed as cell growth at 10^-5 M incubated for 48 hrs by sulforhodamine B assay relative to control; conditions: SK-MEL-2, 48 h, read-out: Activity
[7] = system: RXF 393; experiment: Growth inhibition of human RXF393 cells assessed as cell growth at 10^-5 M incubated for 48 hrs by sulforhodamine B assay relative to control; conditions: RXF 393, 48 h, read-out: Activity
[8] = system: OVCAR-5; experiment: Growth inhibition of human OVCAR5 cells assessed as cell growth at 10^-5 M incubated for 48 hrs by sulforhodamine B assay relative to control; conditions: OVCAR-5, 48 h, read-out: Activity
[9] = system: HT-29; experiment: Growth inhibition of human HT-29 cells assessed as cell growth at 10^-5 M incubated for 48 hrs by sulforhodamine B assay relative to control; conditions: HT-29, 48 h, read-out: Activity
[10] = system: HCC 2998; experiment: Growth inhibition of human HCC2998 cells assessed as cell growth at 10^-5 M incubated for 48 hrs by sulforhodamine B assay relative to control; conditions: HCC 2998, 48 h, read-out: Activity
[11] = system: EKVX; experiment: Growth inhibition of human EKVX cells assessed as cell growth at 10^-5 M incubated for 48 hrs by sulforhodamine B assay relative to control; conditions: read-out: Activity
[12] = system: A549; experiment: Growth inhibition of human A549/ATCC cells assessed as cell growth at 10^-5 M incubated for 48 hrs by sulforhodamine B assay relative to control; conditions: A549, 48 h, read-out: Activity
[13] = system: HOP-62; experiment: Growth inhibition of human HOP62 cells assessed as cell growth at 10^-5 M incubated for 48 hrs by sulforhodamine B assay relative to control; conditions: HOP-62, 48 h, read-out: Activity
[14] = system: TK-10; experiment: Growth inhibition of human TK10 cells assessed as cell growth at 10^-5 M incubated for 48 hrs by sulforhodamine B assay relative to control; conditions: TK-10, 48 h, read-out: Activity
[15] = system: SK-OV-3; experiment: Growth inhibition of human SKOV3 cells assessed as cell growth at 10^-5 M incubated for 48 hrs by sulforhodamine B assay relative to control; conditions: SK-OV-3, 48 h, read-out: Activity
[16] = system: HOP-92; experiment: Growth inhibition of human HOP92 cells assessed as cell growth at 10^-5 M incubated for 48 hrs by sulforhodamine B assay relative to control; conditions: HOP-92, 48 h, read-out: Activity
[17] = system: MDA-MB-231; experiment: Growth inhibition of human MDA-MB-231 cells assessed as cell growth at 10^-5 M incubated for 48 hrs by sulforhodamine B assay relative to control; conditions: MDA-MB-231, 48 h, read-out: Activity
[18] = system: NCI/ADR-RES; experiment: Growth inhibition of human NCI/ADR-RES cells assessed as cell growth at 10^-5 M incubated for 48 hrs by sulforhodamine B assay relative to control; conditions: read-out: Activity
[19] = system: HCT-116; experiment: Growth inhibition of human HCT116 cells assessed as cell growth at 10^-5 M incubated for 48 hrs by sulforhodamine B assay relative to control; conditions: HCT-116, 48 h, read-out: Activity
[20] = system: Malme-3M; experiment: Growth inhibition of human MALME-3M cells assessed as cell growth at 10^-5 M incubated for 48 hrs by sulforhodamine B assay relative to control; conditions: read-out: Activity
[21] = system: UACC-62; experiment: Growth inhibition of human UACC62 cells assessed as cell growth at 10^-5 M incubated for 48 hrs by sulforhodamine B assay relative to control; conditions: UACC-62, 48 h, read-out: Activity
[22] = system: COLO 205; experiment: Growth inhibition of human COLO205 cells assessed as cell growth at 10^-5 M incubated for 48 hrs by sulforhodamine B assay relative to control; conditions: COLO 205, 48 h, read-out: Activity
[23] = system: NCI-H226; experiment: Growth inhibition of human NCI-H226 cells assessed as cell growth at 10^-5 M incubated for 48 hrs by sulforhodamine B assay relative to control; conditions: NCI-H226, 48 h, read-out: Activity
[24] = system: A498; experiment: Growth inhibition of human A498 cells assessed as cell growth at 10^-5 M incubated for 48 hrs by sulforhodamine B assay relative to control; conditions: A498, 48 h, read-out: Activity
[25] = system: U-251; experiment: Growth inhibition of human U251 cells assessed as cell growth at 10^-5 M incubated for 48 hrs by sulforhodamine B assay relative to control; conditions: U-251, 48 h, read-out: Activity
[26] = system: SK-MEL-28; experiment: Growth inhibition of human SK-MEL-28 cells assessed as cell growth at 10^-5 M incubated for 48 hrs by sulforhodamine B assay relative to control; conditions: SK-MEL-28, 48 h, read-out: Activity
[27] = system: PC-3; experiment: Growth inhibition of human PC3 cells assessed as cell growth at 10^-5 M incubated for 48 hrs by sulforhodamine B assay relative to control; conditions: PC-3, 48 h, read-out: Activity

SMILES | growth at 10 µM [1] [%] | growth at 10 µM [2] [%] | growth at 10 µM [3] [%] | growth at 10 µM [4] [%] | growth at 10 µM [5] [%] | growth at 10 µM [6] [%] | growth at 10 µM [7] [%] | growth at 10 µM [8] [%] | growth at 10 µM [9] [%] | growth at 10 µM [10] [%] | growth at 10 µM [11] [%] | growth at 10 µM [12] [%] | growth at 10 µM [13] [%] | growth at 10 µM [14] [%] | growth at 10 µM [15] [%] | growth at 10 µM [16] [%] | growth at 10 µM [17] [%] | growth at 10 µM [18] [%] | growth at 10 µM [19] [%] | growth at 10 µM [20] [%] | other results
O=C1/C(=C\c2cccn2CCCCCCn2c3ccccc3c(=O)c3ccccc32)c2ccccc2N1c1c(Cl)cccc1Cl | 87.8 | 103 | 103 | 98 | 99.2 | 98.8 | 97 | 93.5 | 106 | 78.8 | 89.5 | 96 | 102 | 91 | 97.4 | 75.3 | 101 | 104 | 103 | 102 | growth at 10 µM [21]: 85.5%; growth at 10 µM [22]: 92.8%; growth at 10 µM [23]: 81.9%; growth at 10 µM [24]: 110%; growth at 10 µM [25]: 97.6%; growth at 10 µM [26]: 108%; growth at 10 µM [27]: 73.9%
O=C1NC(=O)C(=Cc2cccn2CCCCn2c3ccccc3c(=O)c3ccccc32)C(=O)N1 | 82.9 | 60.1 | 86.6 | 82.5 | 75.4 | 92.9 | 81.4 | 91.8 | 90.2 | 100 | 100 | 94.6 | 79.1 | 92.4 | 100 | 86.1 | 82.5 | 88.4 | 76.7 | 95.6 | growth at 10 µM [21]: 66.1%; growth at 10 µM [22]: 100%; growth at 10 µM [23]: 88.7%; growth at 10 µM [24]: 88.1%; growth at 10 µM [25]: 76%; growth at 10 µM [26]: 95.8%; growth at 10 µM [27]: 86.3%
O=C1Nc2ccccc2/C1=C/c1cccn1CCCCCn1c2ccccc2c(=O)c2ccccc21 | 65.9 | 47.6 | 105 | 73.3 | 95.3 | 84 | 89.2 | 82.6 | 89.5 | 42.5 | 71.8 | 81.4 | 58.3 | 93.8 | 90.4 | 65.5 | 69.3 | 60.9 | 69.8 | 84.5 | growth at 10 µM [21]: 48.2%; growth at 10 µM [22]: 56.2%; growth at 10 µM [23]: 70%; growth at 10 µM [24]: 108%; growth at 10 µM [25]: 93.4%; growth at 10 µM [26]: 88.1%; growth at 10 µM [27]: 42%
O=C1/C(=C\c2cccn2CCCCCn2c3ccccc3c(=O)c3ccccc32)c2ccccc2N1c1c(Cl)cccc1Cl | 74.4 | 96.8 | 104 | 97.2 | 98.5 | 101 | 100 | 94.5 | 96.2 | 66.3 | 94.6 | 85.9 | 102 | 99.8 | 95.6 | 65.6 | 97.5 | 97.3 | 85.9 | 108 | growth at 10 µM [21]: 82.6%; growth at 10 µM [22]: 72.2%; growth at 10 µM [23]: 91.6%; growth at 10 µM [24]: 106%; growth at 10 µM [25]: 93%; growth at 10 µM [26]: 113%; growth at 10 µM [27]: 73.2%
O=C1NC(=O)C(=Cc2cccn2CCCn2c3ccccc3c(=O)c3ccccc32)C(=O)N1 | 96.7 | 94 | 96.3 | 102 | 94.2 | 109 | 95.9 | 99.9 | 99.7 | 104 | 98 | 94.6 | 98.1 | 96.6 | 98.7 | 87.8 | 99.4 | 101 | 86 | 114 | growth at 10 µM [21]: 87.1%; growth at 10 µM [22]: 108%; growth at 10 µM [23]: 96.3%; growth at 10 µM [24]: 98.5%; growth at 10 µM [25]: 92.5%; growth at 10 µM [26]: 110%; growth at 10 µM [27]: 98.9%
O=C1NC(=O)C(=Cc2cccn2CCCCCn2c3ccccc3c(=O)c3ccccc32)C(=O)N1 | 103 | 92.2 | 99 | 102 | 101 | 107 | 110 | 101 | 103 | 105 | 105 | 100 | 102 | 101 | 108 | 90.4 | 116 | 99.5 | 82.2 | 119 | growth at 10 µM [21]: 90.8%; growth at 10 µM [22]: 114%; growth at 10 µM [23]: 99.2%; growth at 10 µM [24]: 104%; growth at 10 µM [25]: 96.8%; growth at 10 µM [26]: 111%; growth at 10 µM [27]: 91%
O=C1Nc2ccccc2/C1=C/c1cccn1CCCCn1c2ccccc2c(=O)c2ccccc21 | 69.5 | 60.2 | 97 | 85.1 | 98.4 | 84 | 88.1 | 77.9 | 89.1 | 40.5 | 86.1 | 86.3 | 77.4 | 104 | 94.6 | 59.5 | 64.7 | 73.9 | 74.2 | 91.9 | growth at 10 µM [21]: 51.8%; growth at 10 µM [22]: 69.8%; growth at 10 µM [23]: 75.2%; growth at 10 µM [24]: 109%; growth at 10 µM [25]: 95.1%; growth at 10 µM [26]: 105%; growth at 10 µM [27]: 55.1%
